{
  "source": "patent US20100267561A1",
  "about": "“HERBICIDAL PYRIDAZINONE DERIVATIVES” (priority 2007, published 2010)",
  "assay_type_in_all_cases": "in vivo",
  "key": {"[1]": {"system": "field bindweed (Convolvulus arvensis)", "experiment": "Test E pre-/postemergence plant response", "conditions": "scale 0 to 100", "outline": "(§1)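 Pre/post herbicide screen; formulation: non-phytotoxic solvent mix + surfactant. Post timing 1–4 leaves (2–18 cm ht). Greenhouse 14–21 d; visual 0 (none) to 100 (complete control) vs controls.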"}, "[2]": {"system": "spanishneedles (Bidens bipinnata)", "experiment": "Test E pre-/postemergence plant response", "conditions": "scale 0 to 100", "outline": "as §1"}, "[3]": {"system": "common ragweed (Ambrosia elation)", "experiment": "Test E pre-/postemergence plant response", "conditions": "scale 0 to 100", "outline": "as §1"}, "[4]": {"system": "Canada horseweed (Conyza canadensis)", "experiment": "Test E pre-/postemergence plant response", "conditions": "Postemergence, scale 0 to 100", "outline": "as §1"}, "[5]": {"system": "winter barley (HORVX, Hordeum vulgare)", "experiment": "Test F mixtures with safener cloquintocet-mexyl, pre-/postemergence plant response", "conditions": "applied alone"}},
  "data": [
    {"smiles": "CCc1cc(-c2ccc(C(F)(F)F)cc2)nn1-c1c(OC(=O)OC(C)C)cnn(C)c1=O", "note": "[Compound 12]", "values": [
      {"measurement": "Plant response rating, Field Bindweed", "setting": "[1]; 4 g ai/ha, Postemergence", "result": 0},
      {"measurement": "Plant response rating, Field Bindweed", "setting": "[1]; 8 g ai/ha, Preemergence", "result": 0},
      {"measurement": "Plant response rating, Field Bindweed", "setting": "[1]; 31 g ai/ha, Preemergence", "result": 0},
      {"measurement": "Plant response rating, Field Bindweed", "setting": "[1]; Postemergence, 8 g ai/ha", "result": 0},
      {"measurement": "Plant response rating, Field Bindweed", "setting": "[1]; Postemergence, 31 g ai/ha", "result": 0},
      {"measurement": "Plant response rating, Field Bindweed", "setting": "[1]; Preemergence, 4 g ai/ha", "result": 0},
      {"measurement": "Plant response rating, Spanishneedles", "setting": "[2]; 4 g ai/ha, Postemergence", "result": 0},
      {"measurement": "Plant response rating, Spanishneedles", "setting": "[2]; 31 g ai/ha, Preemergence", "result": 0},
      {"measurement": "Plant response rating, Spanishneedles", "setting": "[2]; Postemergence, 8 g ai/ha", "result": 0},
      {"measurement": "Plant response rating, Spanishneedles", "setting": "[2]; Postemergence, 31 g ai/ha", "result": 0},
      {"measurement": "Plant response rating, Ragweed", "setting": "[3]; 4 g ai/ha, Postemergence", "result": 0},
      {"measurement": "Plant response rating, Ragweed", "setting": "[3]; 31 g ai/ha, Preemergence", "result": 0},
      {"measurement": "Plant response rating, Ragweed", "setting": "[3]; Postemergence, 8 g ai/ha", "result": 0},
      {"measurement": "Plant response rating, Ragweed", "setting": "[3]; Postemergence, 31 g ai/ha", "result": 0},
      {"measurement": "Plant response rating, Ragweed", "setting": "[3]; Preemergence, 4 g ai/ha", "result": 0},
      {"measurement": "Plant response rating, Horseweed", "setting": "[4]; 4 g ai/ha", "result": 0},
      {"measurement": "Plant response rating, Horseweed", "setting": "[4]; 8 g ai/ha", "result": 0},
      {"measurement": "Plant response rating, Horseweed", "setting": "[4]; 31 g ai/ha", "result": 0},
      {"measurement": "HORVX Obsd. (observed effect) plant response rating, scale 0 to 100", "setting": "[5]; postemergence, 4 g a.i./ha", "result": 0},
      {"measurement": "HORVX Obsd. (observed effect) plant response rating, scale 0 to 100", "setting": "[5]; postemergence, 8 g a.i./ha", "result": 32},
      {"measurement": "HORVX Obsd. (observed effect) plant response rating, scale 0 to 100", "setting": "[5]; postemergence, 16 g a.i./ha", "result": 65},
      {"measurement": "HORVX Obsd. (observed effect) plant response rating, scale 0 to 100", "setting": "[5]; preemergence, 4 g a.i./ha", "result": 10},
      {"measurement": "HORVX Obsd. (observed effect) plant response rating, scale 0 to 100", "setting": "[5]; preemergence, 8 g a.i./ha", "result": 73},
      {"measurement": "HORVX Obsd. (observed effect) plant response rating, scale 0 to 100", "setting": "[5]; preemergence, 16 g a.i./ha", "result": 80}
    ]}
  ]
}
